# Assay results published in US12472193B2, “Methods and compositions for treating and preventing respiratory related diseases and conditions with xylitol-headgroup lipid analogs” (National Jewish Health, priority 2017, dated 2025).
# Test system: RSV
# Assay: 18:1 DEPX interference with RSV infection in vivo (BALB/c mice)
# Design: species or system mouse
# Conditions: 250 μg 18:1 DEPX intranasal, day 6
smiles,measurement,value
"CCCCCCCCC=CCCCCCCCCOCC(COP(=O)(O)OCC(O)C(O)C(O)CO)OCCCCCCCCC=CCCCCCCCC (mixture of isomers) [18:1 DEPX, sn-1-O-octadecenyl, sn-2-O-octadecenyl sn-3 glycerol phosphoxylitol]","reduction of viral burden by a factor of (qRT-PCR, FIGS. 12A and 12B)",6.2
